Results taken from patent publication US9089850B2, “Method and apparatus for separation of pharmaceutical materials on the basis of their density” (Syracuse University, priority 2009, dated 2015).
Like-named read-outs stand apart in the source and are kept apart here.

Experiments:
[1] = cited from earlier work
[2] = polymorphic form expected for the crystallization solvent, previous work [Parmar, 2007]; cited from earlier work
[3] = Density gradient analysis of fresh, quickly crystallized sulfathiazole samples; type: physicochemical; conditions: relative amount of form in density gradient; benzene/chloroform to tetrachloroethylene gradient
Description: Our density gradient methodology is a refinement and extension to the pharmaceutical industry of existing well-established methodologies in other fields. [Bomstein & Steberl, 1959; Kind & Summerscales, 1966; US 2004/6,709,871 B2; Richards, 1999; ASTM D 1505-98; ISO 1183-2:2004; Yanagi, 2010; Doom, 2010; Chernov, 2009a.b; Moshammer, 2009; Fleurier, 2009; Kato, 2009; Deng, 2008, 2009; Park, 2008; Lu, 2006; Hersam, 2006]. A density gradient is made with a “gradient maker” consisting of two chambers connected through a stopcock and with a second stopcock on one of the containers to an outflow tube. A mixer is used in the outflow chamber.
We have developed this technique to optimize reliability and visibility of the resulting separated materials. In particular, we have created a device that permits the formation of identical gradients in one overall unobstructed container (see FIG. 3 and FIG. 4). These columns are at the outer wall of the overall cylindrical container. A central black column permits viewing of the materials in each column individually. The tubes that will contain the samples of crystalline material are open at the bottom; the gradient maker fills all columns simultaneously forming identical gradients.
A density gradient was prepared in the device described above using a mixture of benzene and chloroform (ρ=1.32 g/cm^3) as one liquid and tetrachloroethylene (ρ=1.62 g/cm^3) as the other.
Fresh crystalline samples of solid sulfathiazole were prepared by crystallizing about 50 mg of sulfathiazole (Sigma-Aldrich lot 028K1522) from water, methanol, ethanol, isopropanol and n-butanol by dissolving them at about 55° C. and then cooling to ambient temperature to form crystals at which point material was harvested. All materials were made at the same time, isolated within an hour of each other and dried with a stream of argon gas.
Based on the density gradient analysis, this rapid crystallization gives from water a mixture of forms III and IV in about equal amount, from both methanol and ethanol form II and III, from isopropanol a mixture of forms I, II and III and from n-butanol form I. The bands for this last material are distinctly more compact than those of the other forms.
One of the major benefits of the gradient method is that it provides an immediate visual report of the number of materials in an API preparation. A qualitative interpretation of the relative amounts of components in the gradient is easily made. A more quantitative estimate could be obtained by a simple light scattering analysis with simple added apparatus that performs either transmission or 90 degree scattering measurements. Calibration of the light scattering signal as a function of the amount of API could be performed using a sample in a very steep gradient (and thus not separated). This would make this a semi-quantitative method.

[4] = Seeding experiment in n-propanol with flotation density test; type: physicochemical; conditions: crystals slowly grown in n-propanol at ambient temperature, seeded with material of form III density
Description: Parmar, 2007 states that crystallization from n-propanol yields form I and that that form is stable in this solvent. In a seeding experiment we harvested material that was the right density for form III and used this to seed crystallization in n-propanol. The resulting crystals, slowly grown at ambient temperature, are not consistent with form I or form III, but are consistent with form II. The density by a flotation density test indicates this material to be form II. The observation that form II is obtained in this case is quite probably due to the presence of a small amount of form II in the predominantly form III sample. […] That is not the case with our seed crystals.

Nc1ccc(S(=O)(=O)Nc2nccs2)cc1 [form I, sulfathiazole]
density ([1]; single crystal x-ray results [Blagden, 1998], listed as I): 1.500

Nc1ccc(S(=O)(=O)Nc2nccs2)cc1 [Tube A, sulfathiazole]
Expected [23] [2]: Form IV
Form II [3]: minor
Form III [3]: major
Form IV [3]: major

Nc1ccc(S(=O)(=O)Nc2nccs2)cc1 [Tube C, sulfathiazole]
Expected [23] [2]: Form IV
Form II [3]: major
Form III [3]: major
Form IV [3]: minor

Nc1ccc(S(=O)(=O)Nc2nccs2)cc1 [Tube B, sulfathiazole]
Expected [23] [2]: Form II
Form II [3]: major
Form III [3]: major
Form IV [3]: minor

Nc1ccc(S(=O)(=O)Nc2nccs2)cc1 [form III, sulfathiazole]
density ([1]; single crystal x-ray results [Blagden, 1998], listed as III): 1.569

Nc1ccc(S(=O)(=O)Nc2nccs2)cc1 [Tube D, sulfathiazole]
Expected [23] [2]: Form III
Form I [3]: very
Form II [3]: major
Form III [3]: minor
Form IV [3]: very

Nc1ccc(S(=O)(=O)Nc2nccs2)cc1 [form V, sulfathiazole]
density ([1]; synchrotron x-ray powder diffraction study [Chan, 1999]): 1.484

Nc1ccc(S(=O)(=O)Nc2nccs2)cc1 [form IV, sulfathiazole]
density ([1]; single crystal x-ray results [Blagden, 1998], listed as IV): 1.595

Nc1ccc(S(=O)(=O)Nc2nccs2)cc1 [sulfathiazole]
polymorphic form by flotation density test [4]: form II

Nc1ccc(S(=O)(=O)Nc2nccs2)cc1 [form II, sulfathiazole]
density ([1]; single crystal x-ray results [Blagden, 1998], listed as II): 1.551

Nc1ccc(S(=O)(=O)Nc2nccs2)cc1 [Tube E, sulfathiazole]
Expected [23] [2]: Form I
Form I [3]: major
